Results taken from patent publication US6911432B2, “Drugs, foods or drinks with the use of algae-derived physiologically active substances” (priority 1997, dated 2005).

Experiments:
spleen lymphocytes = experiment: lymphocyte blastgenesis induced by Concanavalin A, 3H-thymidine uptake; format: cell-based, ddY mouse
Description: A spleen was taken out from a ddY mouse (Nippon SLC; male, 7 weeks old), finely minced and suspended in RPMI-1640 medium (Gibco) containing 10% fetal bovine serum (HyClone) to obtain a single cell suspension. The cell suspension was seeded into a plastic Petri dish, incubated at 37° C. for 2 hours in a carbon dioxide incubator. Adhesive cells adhered to the Petri dish were removed and non-adhesive cells were used as spleen lymphocytes. 200 μl of 2×10^6 cells/ml spleen lymphocytes suspension was seeded into each well of 96 well microtiter plate. Agarobiose at varying concentration was added to the wells other than the control well. Furthermore, to all the wells was added 5 μg of Con A (Nacalai Tesque) and the plate was incubated at 37° C. for one day in a carbon dioxide incubator. After incubation, 1 μCi of ^3H-thymidine was added to each well and incubation was continued for additional one day. Then, its uptake into cells was measured using a liquid scintillation counter.
FIG. 34 illustrates the relation between the agarobiose concentration and the ^3H-thymidine uptake in lymphocyte blastgenesis induced by Con A. The horizontal axis represents the agarobiose concentration and the vertical axis represents the ^3H-thymidine uptake (cpm). The open bar and the shaded bar represent the ^3H-thymidine uptake without stimulation and with stimulation by Con A, respectively. […]

HL-60 cells = experiment: apoptosis-inducing assay, cell morphology under an optical microscope; format: cell-based, human
Description: Human promyelocytic leukemia cell HL-60 (ATCC CCL-240) was incubated at 37° C. in RPMI 1640 medium (manufactured by Gibco) supplemented with 10% of fetal bovine serum (JRH Bioscience) which had been treated at 56° C. for 30 minutes, and suspended in the same medium at a concentration of 500 cells/90 μl. Each 90 μl portion of the suspension was distributed into each well of a 96 well plate (manufactured by Falcon). To the suspension in each well was added 10 μl of the above-mentioned acid decomposition solution, a 10-fold dilution of the solution or water, and incubated with 5% CO2 at 37° C. After 24 hour and 48 hour from the initiation of the incubation, the cell morphology was observed under an optical microscope. Then, according to the MTT method described in “Apoptosis Jikken Protocol” (Syuzyun-sha, Tanuma, Seiichi ed., pp. 156 (1994)), 5 mg/ml of 3-(4,5-dimethylthiazole-2-yl)-2,5-diphenyltetrazolium bromide (manufactured by Sigma) and 10 μl of phosphate buffered saline solution were added to the culture and the incubation was continued for additional 4 hours. Then, 100 μl of 2-propanol containing 0.04 N hydrochloric acid was added to the culture, and the mixture was thoroughly stirred. An absorbance at 590 nm was measured and the number of viable cells was calculated from the absorbance measured for each of the wells, which was compared each other.
Each elution peak was fractionated, collected, evaporated to dryness under reduced pressure and then dissolved in 300 μl of water. Each fraction was sterilized by filtration and its 10 μl portion was placed in a well of a 96 well microtiter plate. Then, 90 μl of RPMI 1640 medium (manufactured by Nissui) containing 10% fetal bovine serum (manufactured by Gibco) and 5,000 HL-60 cells (ATCC CCL-240) was added thereto, followed by incubation at 37° C. for 48 hours with 5% CO2. The cell morphology was observed under an optical microscope. Then, 5 mg/ml 3-(4,5-dimethylthiazole-2-yl)-2,5-diphenyltetrazolium bromide and 10 μl of phosphate buffered saline solution were added thereto and the incubation was continued for additional 4 hours. To the culture was added 100 μl of 2-propanol containing 0.04 N hydrochloric acid and the resultant mixture was thoroughly stirred. The absorbance at 590 nm was measured to determine a cell proliferation rate.

WiDr = experiment: antiproliferation assay, MTT method; format: cell-based, human; conditions: for dilution rate of the dilution added to the group whose absorbance at 590 nm was less than one-half of that of the control group: dilution rate 1 corresponds to 5 mM in medium; for IC50: read-out: IC50 (concentration required for 50% proliferation inhibitory rate)
Description: (§1) Each fraction was sterilized by filtration and its 10 μl portion was placed in a well of a 96 well microtiter plate. […] The cell morphology was observed under an optical microscope. […] The absorbance at 590 nm was measured to determine a cell proliferation rate. (2) A 50 mM solution of agarobiose, agarotetraose or agarohexaose obtained in Example 3-(1) was sterilized by filtration and diluted 2-, 4-, 8-, 16-, 32-, 64- and 128-folds with sterilized water. […] [table] The number in Table 3 represents the dilution rate of the dilution added to the group whose absorbance at 590 nm was less than one-half of that of the control group to which water was added. […] Then, for agarobiose, agarotetraose and agarohexaose, the concentrations required for 50% proliferation inhibitory rate (IC50) are calculated based on the change in the absorbance at 590 nm, and are shown in Table 4.

MKN45 = experiment: antiproliferation assay, MTT method; format: cell-based, human; conditions: for dilution rate of the dilution added to the group whose absorbance at 590 nm was less than one-half of that of the control group: dilution rate 1 corresponds to 5 mM in medium; for IC50: read-out: IC50 (concentration required for 50% proliferation inhibitory rate)
Description: as §1

HT-29 = experiment: antiproliferation assay, MTT method; format: cell-based, human; conditions: for dilution rate of the dilution added to the group whose absorbance at 590 nm was less than one-half of that of the control group: dilution rate 1 corresponds to 5 mM in medium; for IC50: read-out: IC50 (concentration required for 50% proliferation inhibitory rate)
Description: as §1

HeLa S3 = experiment: antiproliferation assay, MTT method; format: cell-based, human; conditions: for dilution rate of the dilution added to the group whose absorbance at 590 nm was less than one-half of that of the control group: dilution rate 1 corresponds to 5 mM in medium; for IC50: read-out: IC50 (concentration required for 50% proliferation inhibitory rate)
Description: as §1

HCT116 = experiment: antiproliferation assay, MTT method; format: cell-based, human; conditions: for dilution rate of the dilution added to the group whose absorbance at 590 nm was less than one-half of that of the control group: dilution rate 1 corresponds to 5 mM in medium; for IC50: read-out: IC50 (concentration required for 50% proliferation inhibitory rate)
Description: as §1

A549 = experiment: antiproliferation assay, MTT method; format: cell-based, human; conditions: for dilution rate of the dilution added to the group whose absorbance at 590 nm was less than one-half of that of the control group: dilution rate 1 corresponds to 5 mM in medium; for IC50: read-out: IC50 (concentration required for 50% proliferation inhibitory rate)
Description: as §1

T24 = experiment: antiproliferation assay, MTT method; format: cell-based, human; conditions: for dilution rate of the dilution added to the group whose absorbance at 590 nm was less than one-half of that of the control group: dilution rate 1 corresponds to 5 mM in medium; for IC50: read-out: IC50 (concentration required for 50% proliferation inhibitory rate)
Description: as §1

HepG2 = experiment: antiproliferation assay, MTT method; format: cell-based, human; conditions: for dilution rate of the dilution added to the group whose absorbance at 590 nm was less than one-half of that of the control group: dilution rate 1 corresponds to 5 mM in medium; for IC50: read-out: IC50 (concentration required for 50% proliferation inhibitory rate)
Description: as §1

RPMI1788 = experiment: antiproliferation assay, MTT method; format: cell-based, human; conditions: for dilution rate of the dilution added to the group whose absorbance at 590 nm was less than one-half of that of the control group: dilution rate 1 corresponds to 5 mM in medium; for IC50: read-out: IC50 (concentration required for 50% proliferation inhibitory rate)
Description: as §1

T-47D = experiment: antiproliferation assay, MTT method; format: cell-based, human; conditions: for dilution rate of the dilution added to the group whose absorbance at 590 nm was less than one-half of that of the control group: dilution rate 1 corresponds to 5 mM in medium; for IC50: read-out: IC50 (concentration required for 50% proliferation inhibitory rate)
Description: as §1

IC50 (MKN45) | IC50 (HT-29) | IC50 (HeLa S3) | IC50 (HCT116) | IC50 (A549) | IC50 (T24) | IC50 (HepG2) | IC50 (T-47D) | SMILES | dilution rate of the dilution added to the group whose absorbance at 590 nm was less than one-half of that of the control group (WiDr) | IC50 (WiDr) | dilution rate of the dilution added to the group whose absorbance at 590 nm was less than one-half of that of the control group (MKN45) | dilution rate of the dilution added to the group whose absorbance at 590 nm was less than one-half of that of the control group (HT-29) | dilution rate of the dilution added to the group whose absorbance at 590 nm was less than one-half of that of the control group (HeLa S3) | dilution rate of the dilution added to the group whose absorbance at 590 nm was less than one-half of that of the control group (HCT116) | dilution rate of the dilution added to the group whose absorbance at 590 nm was less than one-half of that of the control group (A549) | dilution rate of the dilution added to the group whose absorbance at 590 nm was less than one-half of that of the control group (T24) | dilution rate of the dilution added to the group whose absorbance at 590 nm was less than one-half of that of the control group (HepG2) | dilution rate of the dilution added to the group whose absorbance at 590 nm was less than one-half of that of the control group (RPMI1788) | IC50 (RPMI1788) | dilution rate of the dilution added to the group whose absorbance at 590 nm was less than one-half of that of the control group (T-47D) | also measured
344 µM | 622 µM | 353 µM | 244 µM | 570 µM | 352 µM | 652 µM | 210 µM | OC[C@H]1O[C@@H](O[C@H]2[C@H]3OC[C@@H]2OC(O)[C@H]3O)[C@H](O)[C@@H](O)[C@H]1O (mixture of isomers) [Agarobiose, agarobiose] | 8 | 405 µM | 8 | 8 | 8 | 16 | 8 | 8 | 8 | 64 | 44 µM | 16 | inhibitory activity against lymphocyte blastgenesis induced by Con A (in words) (spleen lymphocytes): dose-dependent inhibitory activity; inhibition of mouse lymphocyte proliferation stimulated by mitogen (spleen lymphocytes; Con A, 100 μg/ml): almost completely inhibits; apoptosis corpuscles under an optical microscope (HL-60 cells; 78 μg/ml): apoptosis corpuscles were observed; apoptosis-inducing activity (apoptosis corpuscles, in words) (HL-60 cells; preparations and fractions): had both activities
196 µM | 208 µM | 400 µM | 158 µM | 494 µM | 399 µM | 413 µM | 183 µM | OC[C@H]1O[C@@H](O[C@H]2[C@H]3OC[C@@H]2O[C@@H](O[C@H]2[C@@H](O)[C@@H](CO)O[C@@H](O[C@H]4[C@H]5OC[C@@H]4OC(O)[C@H]5O)[C@@H]2O)[C@H]3O)[C@H](O)[C@@H](O)[C@H]1O (some centres unmarked) [Agarotetraose, agarotetraose] | 8 | 399 µM | 16 | 16 | 8 | 32 | 8 | 8 | 8 | 128 | 28 µM | 16 | –
